Assays:
Assay type in all cases: biochemical
[1] = target: T1, β1,3-N-acetylglucosaminyl transferase (G4) (Homo sapiens, UniProt Q9Y2A9, R328H); assay: Substrate specificity of G4 with pyridylaminated oligosaccharides; conditions: for Relative activity (%): pyridylaminated substrate 50 μmol/l, 37° C., 14.5 hours, activity on LNnT defined as 100%
T1 construct: made in house; host or cells: Sf21 insect cells infected with recombinant baculovirus from pVL1393-F2G4
T1 sequence (Q9Y2A9 38-372 R328H): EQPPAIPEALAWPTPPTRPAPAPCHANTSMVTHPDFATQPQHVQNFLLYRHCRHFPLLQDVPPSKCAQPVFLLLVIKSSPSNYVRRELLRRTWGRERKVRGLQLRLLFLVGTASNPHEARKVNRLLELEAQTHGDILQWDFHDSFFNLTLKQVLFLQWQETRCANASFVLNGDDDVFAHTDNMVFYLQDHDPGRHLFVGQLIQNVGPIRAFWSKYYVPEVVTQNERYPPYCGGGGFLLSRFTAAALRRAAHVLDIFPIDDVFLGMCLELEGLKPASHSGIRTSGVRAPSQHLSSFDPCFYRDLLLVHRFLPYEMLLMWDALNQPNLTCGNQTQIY
Description: Examination on the substrate specificity of a β1,3-N-acetylglucosaminyl transferase (G4) was carried out by using the FLAG peptide-fused G4 polypeptide produced as a secreted form in Example 10.
(§1) The method shown in Example 8 was used as the activity measuring method. Specifically, after the reaction at 37° C. for 14.5 hours in 30 μl of an assay solution [200 mmol/l of MOPS (pH 7.5), 20 mmol/l of UDP-GlcNAc (SIGMA), 20 mmol/l of MnCl2, 50 μmol/l of pyridylaminated sugar chain substrate and 15 μl of the above eluate], products were detected by HPLC. As substrates, LNnT, lacto-N-tetraose (Galβ1-3GlcNAcβ1-3Galβ1-4Glc, hereinafter referred to as “LNT”), lacto-N-fucopentaose II (Galβ1-3(Fucα1-4)GlcNAcβ1-3Galβ1-4Glc, hereinafter referred to as “LNFP-II”), lacto-N-fucopentaose III (Galβ1-4(Fucα1-3)GlcNAcβ1-3Galβ1-4Glc, hereinafter referred to as “LNFP-III”), lacto-N-fucopentaose V (Galβ1-3GlcNAcβ1-3Galβ1-4(Fucα1-3)Glc, hereinafter referred to as “LNFP-V”) and lacto-N-difucohexaose II (Galβ1-3(Fucα1-4)GlcNAcβ1-3Galβ1-4(Fucα1-3)Glc, hereinafter referred to as “LNDFH-II”) (all manufactured by Oxford Glycosystems) were used after fluorescently labeling them with aminopyridine. Fluorescence labeling of these substrates were carried out in accordance with the usual method [Agric. Biol. Chem., 54, 2169 (1990)].
(§2) For each substrate, the reaction was carried using the assay solution with or without UDP-GlcNAc (sugar donor), and then HPLC was carried out and peaks appeared only in the assay solution containing UDP-GlcNAc were defined as products.
(§3) The assay solution after completion of the reaction was treated at 100° C. for 5 minutes and then centrifuged at 10,000×g for 5 minutes, and a portion (5 μl) of the thus obtained supernatant was applied to HPLC.
(§4) The HPLC was carried out by using TSK-gel ODS-80Ts column (4.6×300 mm; Tosoh); 0.02 mol/l ammonium acetate buffer (pH 4.0) was used as the eluate at an elution temperature of 50° C. and at a flow rate of 0.5 ml/min.
(§5) Products were detected by using a fluorescence spectrum photometer FP-920 (JASCO Corporation) (excitation wavelength 320 nm, radiation wavelength 400 nm).

[2] = target: T2, β1,3-N-acetylglucosaminyl transferase (G3) (Homo sapiens, UniProt Q9NY97); assay: Substrate specificity of G3 with unlabeled oligosaccharides; conditions: 2 hours; for Relative activity (%) G3: unlabeled substrate, 37° C., activity for LNnT defined as 100%
T2 construct: made in house; host or cells: Sf21 insect cells infected with recombinant baculovirus from pVL1393-F2G3
T2 sequence (Q9NY97 31-397): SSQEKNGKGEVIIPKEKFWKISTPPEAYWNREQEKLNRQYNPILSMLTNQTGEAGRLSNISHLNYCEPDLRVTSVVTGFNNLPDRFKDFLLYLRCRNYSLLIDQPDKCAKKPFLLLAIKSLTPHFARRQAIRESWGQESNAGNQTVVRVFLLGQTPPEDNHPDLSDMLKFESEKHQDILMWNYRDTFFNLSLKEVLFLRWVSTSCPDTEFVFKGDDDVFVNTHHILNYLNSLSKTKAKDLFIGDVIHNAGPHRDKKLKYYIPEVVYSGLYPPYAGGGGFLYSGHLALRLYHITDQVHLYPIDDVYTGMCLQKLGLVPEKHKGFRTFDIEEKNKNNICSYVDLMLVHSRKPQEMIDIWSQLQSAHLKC
Description: (§6) The reaction using the glycosyltransferase was carried out as follows. The reaction was carried out at 37° C. for 16 hours in 40 μl of an assay solution [50 mmol/l MOPS (pH 7.5), 5 mmol/l UDP-GlcNAc (SIGMA), 5 mmol/l MnCl2, […] and 10 μl of the above eluate]. Next, the reaction solution was treated at 100° C. for 5 minutes and then centrifuged at 10,000×g for 20 minutes to obtain the supernatant, and a portion thereof was analyzed using HPAE/PAD (High Performance Anion Pulsed Amperometoric Detection; manufactured by DIONEX). The specific method was carried out in the usual way [Anal. Biochem., 189, 151 (1990), J. Biol. Chem., 273, 433 (1998)].
(§7) As substrates, the following unlabeled oligosaccharides were used: lactose (Galβ1-4Glc), N-acetyllactosamine (Galβ1-4GlcNAc, hereinafter referred to as “LacNAc” in some cases), LNnT, LNT and lacto-N-neohexaose (Galβ1-4GlcNACβ1-3Galβ1-4GlcNAcβ1-3Galβ1-4Glc, hereinafter referred to as “LNnH”).
as §2
(§8) In identifying the product, coincidence of its elution time with that of a standard sugar chain was used as the index. As the standard sugar chains, GlcNAcβ1-3Galβ1-4Glc, GlcNAcβ1-3Galβ1-4GlcNAc and GlcNAcβ1-3Galβ1-4GlcNAcβ1-3Galβ1-4Glc were used.
Substrate specificity of the FLAG peptide-fused G3 polypeptide was examined by the method shown in Example 11(2). The enzyme reaction was carried out at 37° C. for 2 hours.

[3] = target: T3, β1,3-N-acetylglucosaminyl transferase (G7) (Homo sapiens, UniProt Q9C0J1); assay: Substrate specificity of G7 with pyridylaminated oligosaccharides; conditions: 16 hours; for Relative activity (%): pyridylaminated substrate, 37° C., activity for LNnT defined as 100%
T3 construct: made in house; host or cells: Sf21 insect cells infected with recombinant baculovirus from pVL1393-F2G7
Description: as §1, §2, §3, §4, §5
Examination of the substrate specificity of a β1,3-N-acetylglucosaminyl transferase (G7) was carried out using the FLAG peptide-fused G7 polypeptide purified in Example 17.
Substrate specificity of the FLAG peptide-fused G7 polypeptide was examined by the method shown in Example 11(1). The reaction was carried out at 37° C. for 16 hours.

[4] = target: T3, β1,3-N-acetylglucosaminyl transferase (G7); assay: Substrate specificity of G7 with unlabeled oligosaccharides; conditions: 15.5 hours; for Relative activity (%) G7: unlabeled substrate, 37° C., activity for LNnT defined as 100%
Description: as §6, §7, §2, §8
Substrate specificity of the FLAG peptide-fused G7 polypeptide was examined using the method shown in Example 11(2). The enzyme reaction was carried out at 37° C. for 15.5 hours.

[5] = pyridylaminated LNnT as substrate

T3 sequence (Q9C0J1 56-378): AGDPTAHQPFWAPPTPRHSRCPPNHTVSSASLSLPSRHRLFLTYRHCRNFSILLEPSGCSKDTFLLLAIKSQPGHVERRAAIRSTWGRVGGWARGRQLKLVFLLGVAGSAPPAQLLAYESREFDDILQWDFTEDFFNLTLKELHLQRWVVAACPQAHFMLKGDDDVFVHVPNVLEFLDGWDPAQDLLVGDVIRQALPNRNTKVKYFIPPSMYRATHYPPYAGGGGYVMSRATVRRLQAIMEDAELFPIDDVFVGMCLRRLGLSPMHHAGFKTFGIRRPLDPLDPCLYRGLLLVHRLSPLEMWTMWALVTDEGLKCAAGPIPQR

conversion ratio of the substrate into the product [1, 5] [%] | Relative activity (%) [1] [%] | conversion ratio of a substrate into the product ([2]; unlabeled LNnT as substrate) [%] | Relative activity (%) G3 [2] [%] | conversion efficiency of the substrate into the product [3, 5] [%] | Relative activity (%) [3] [%] | conversion efficiency of the substrate into the product ([4]; unlabeled LNnT as substrate) [%] | Relative activity (%) G7 [4] [%] | Compound
12.9 | 100 | 4.6 | 100 | 3.76 | 100 | 3.07 | 100 | CC(=O)N[C@H]1[C@H](O[C@H]2[C@@H](O)[C@@H](CO)O[C@@H](O[C@H]3[C@H](O)[C@@H](O)C(O)O[C@@H]3CO)[C@@H]2O)O[C@H](CO)[C@@H](O[C@@H]2O[C@H](CO)[C@H](O)[C@H](O)[C@H]2O)[C@@H]1O (mixture of isomers) [LNnT, lacto-N-neotetraose]
 | 84.5 |  | 27 |  | 7.6 |  | 0 | CC(=O)N[C@H]1[C@H](O[C@H]2[C@@H](O)[C@@H](CO)O[C@@H](O[C@H]3[C@H](O)[C@@H](O)C(O)O[C@@H]3CO)[C@@H]2O)O[C@H](CO)[C@@H](O)[C@@H]1O[C@@H]1O[C@H](CO)[C@H](O)[C@H](O)[C@H]1O (stereo partly drawn) [LNT, lacto-N-tetraose]
